Experimental data reported in patent US9657088B2, “Anti-HSV antibody” (priority 2009, dated 2017).
Entries after “also recorded” stand apart in the source; their conditions may differ. Where two headings read alike, the source gives them in different places.

Legend:
HSV-1 F [1] = assay: Passive immunization of NOD/SCID mice 24 h before intravaginal HSV-1 challenge; type: in vivo
Description: Mice were infected intravaginally with 1×10^6 TCID50/20 μl of the neurovirulent HSV-1 strain F. Infected mice with symptoms of weight loss, vulvitis/vaginitis or neurological diseases were killed, and their organs examined for infectious virus by titration on Vero cell monolayers as described previously. Non-infected mice were killed at day 30. Animals per group n=7.
Animals per group n=7 for PBS, n=9 all other groups.
Anesthetized female nonobese diabetic/severe combined immunodeficient (NOD-SCID) mice (NOD.CB17-Prkdc^scid/J, Charles River Laboratories, Research Models and Services, Sulzfeld, Germany), 6-8 weeks of age, were challenged intravaginally with 20 μl inoculum of 1×10^6 TCID50 HSV-1 F per mouse. Skin glue (Epiglu, Meyer-Haake Medical Innovations, Wehrheim, Germany) was applied onto the vulva to prevent discharge of the virus inoculum. […] Mice were examined daily after viral inoculation for loss of weight, vulvitis/vaginitis (redness, mucopurulent discharge and signs of inflammation) and neurological disease. Mice displaying any of theses symptoms were sacrificed immediately. […] Mice were assessed for infection by determination of virus titers from vaginal irrigations obtained on days 1, 2, 4, 6 and 8 after infection and at the time of death using the endpoint dilution assay on Vero cells. Viral loads in organs (spleen, adrenal gland, lung heart, liver, kidney, spinal cord, and brain) of sacrificed mice were determined after homogenization of organs by titration on Vero cell monolayers as described elsewhere (41). Each test and control group contained 9-10 animals with detectable HSV-1 infection.
Natural killer (NK) cells accumulating at the site of HSV-2 infection in humans (28) are the early source of interferon-γ (45), which plays an essential role for the control of HSV infection (2, 45, 62).

gB derived peptides = type: binding, HSV-1
HSV-1 F [2] = assay: Cell-to-cell spread assay in Vero cell monolayers; type: cell-based; details: 500 nM, 48 h
Description: Vero cells grown to confluency on glass cover slips in 24-weel tissue culture plates are infected for 4 h at 37° C. with a constant virus amount of 400 TCID50/well. One median tissue culture infective dose (1 TCID50) is the amount of a cytopathogenic agent, such as a virus, that will produce a cytopathic effect in 50% of the cell cultures inoculated. The virus inoculum is subsequently removed, the cells washed twice with PBS and further incubated for 2 days at 37° C. in 1 ml DMEM, 2% FCS, Pen/Strep containing an excess of either different anti-HSV antibodies or polyclonal anti-HSV control serum in order to prevent viral spreading via the supernatant Viral antigens of HSV-infected cells are detected with a fluorescence labelled polyclonal goat-anti-HSV-serum (BETHYL Labolatories, Montgomery, Tex. USA, Catalog No. A190-136F, Lot No. A190-136F-2).
Two days after infection spreading of the virus was detected with fluorescence labeled polyclonal goat-anti-HSV serum using a Leica DM IRE2 confocal microscope at 40-fold magnification.
For spreading within a host HSV uses two mechanisms: release of cell-free particles and direct, cell-to-cell spread. […] Viral antigens were detected by staining of HSV-1 infected cell monolayers with FITC-conjugated polyclonal goat-anti-HSV serum (BETHYL, Montgomery, Tex., USA) diluted 1:100 in blocking buffer. […]

HSV1 strain 342 hv = details: administration 24 h prior to viral inoculation; cited from earlier work
[3] = tested on: truncated HSV-1 glycoprotein B (gB) expressed in COS-1 cells; type: binding

mAb 2c: murine monoclonal IgG2a antibody specific for glycoprotein B of HSV1 and HSV2; VH SEQ ID NO: 9, VL SEQ ID NO: 10
Median survival time prolonged compared to PBS control (HSV-1 F [1]; 5 mg/kg i.v., 24 h prior to challenge): 2.6 fold
protection against lethal encephalitis (HSV-1 F [1]; 15 mg/kg i.v., 24 h prior to infection): fully protected against lethal encephalitis; also recorded: full protection
Viral titres in organs of protected mice (HSV-1 F [1]; 15 mg/kg, detection limit): < 1×10^2 TCID50
protection against lethal infection (HSV-1 F [1]; low antibody doses (2.5 mg/kg, 5 mg/kg)): not fully protected against lethal infection
survival (HSV-1 F [1]; single i.v. dose of 5 mg/kg, 24 h prior to infection): prolongs the survival
binding strength to duotope (gB derived peptides; duotope FED-βA-βA-FYGYRE): almost saturation of the fluorescence signal intensity
binding strength to duotope (gB derived peptides; duotope YSQFMG-βA-FYGYRE versus peptide 172[…]184): only slightly increased
inhibition of cell-to-cell spread (HSV-1 F [2]): inhibit at a concentration of 500 nM the cell-to-cell spread completely; also recorded: completely abrogated HSV-1 spread
protection against infection (HSV1 strain 342 hv): efficiently protected the animals against infection
Reactivity ([3]; gB(1-470)): −
Reactivity ([3]; gB(1-487)): +
Reactivity ([3]; gB(1-503)): +
Reactivity ([3]; gB(1-505)): +
Reactivity ([3]; gB(1-630)): +
Reactivity ([3]; gB(1-720)): +
Reactivity ([3]; gB(1-904) (full length gB)): +
Reactivity ([3]; pSVL, expression vector, negative control): −
